Results on one molecule are retold here after EP0036502B1, “2-Alkyl-5-hydroxy-1,4-naphthoquinones, process for their manufacture and pharmaceutical preparations containing these compounds” (ZYMA GMBH, priority 1980, dated 1981).

This test relates to Prostaglandinsynthetase. The test can be described thus: Prostaglandin synthetase inhibition in vitro (method of Baumann et al.). The format is biochemical. The conditions noted are these: concentration 10-^3 Mol/I, 1000 µM. From the text:
Die Erfindung betrifft somit weiterhin die Verwendung der erfindungsgemäßen Verbindungen der allgemeinen Formel I zur Behandlung und Bekämpfung von Entzündungen sowie von allergischen, insbesondere anaphylaktischen Reaktionen. So beträgt beispieslweise die durch 2-Äthyl-5-hydroxy-1,4-naphthochinon hervorgerufene Prostaglandinsynthetase-Hemmung in vitro bei einer Konzentration von 10-^3 Mol/I 87%. Die Bestimmung der Prostaglandinsynthetase-Hemmung wurde nach J. Baumann, F. v. Bruchhausen u. G. Wurm, Naunym-Schmiedeberg's Arch. Pharmacol. 307, 73 (1979) und j. Baumann, G. Wurm u. F. v. Bruchhausen, Arch. Pharm. (Weinheim) 313,330 (1980) durchgeführt.

Structures are written as SMILES.

On to `CCC1=CC(=O)c2c(O)cccc2C1=O` [2-Äthyl-5-hydroxy-1,4-naphthochinon], for which the Prostaglandinsynthetase-Hemmung in vitro amounted to 87%.
